Data: article PMC12380226, “Novel strategies for inhibiting SufA protease: the role of ester substituents and biological properties” (Future Medicinal Chemistry, 2025)
Read-outs that look alike come from different tables or passages of the source. Values belong to the compound of their own block, whether it stands above or below them.

How the values were obtained:
E. coli = settings: read-out: literature IC50; cited from earlier work
S. aureus = settings: read-out: literature IC50; cited from earlier work
SufA protease [1] = assay: SufA inhibition studies (fluorogenic substrate ABZ-Ile-Ser-Lys-ANB, progress curve method); type: biochemical, Finegoldia magna
Protocol: The assays were performed at 37°C with an excitation wavelength of 320 nm for ABZ and an emission wavelength of 410 nm using 96-well microtiter plates (COSTAR, Corning Inc., Gdańsk, Poland) in 0.1 M Tris-HCl (pH 8.0) with 0.01 M KCl. The concentrations of substrate (ABZ-Ile-Ser-Lys-ANB) and SufA protease were 25 µM and 4 µg/mL, respectively. The SufA protease was incubated for 10 min with the tested compound, dissolved in DMSO (inhibitor final concentration ranging from 0 to 300 µM), and then the measurement was taken for 10 min. Each assay was performed in at least duplicate. The inhibitory activity was measured, and the percentage of inhibition was calculated with the equation: % inhibition = RFUtest / RFU− ∗ 100%,
where RFU represents the relative fluorescence units, test refers to the signal from reactions containing an inhibitor, and (-) represents the signal from the control reactions (without an inhibitor). The inhibitory effects of the synthesized compounds were evaluated by means of the progress curve method.
where [P] is the product concentration at time t, vi is the initial velocity, and vs is the steady state velocity. […]

ctDNA = assay: DNA intercalation by circular dichroism spectroscopy; type: binding, ox; settings: inhibitor 100 µM, ctDNA 50 µM, 1% DMSO
Protocol: The measurement parameters were set as follows: the wavelength range was set from 220 nm to 320 nm, step – at every 0.2 nm, and 4 accumulations. Measurements were performed in a Justcode M cuvette with an optical path of 1 mm. 200 μL of the analyzed solution was introduced into the cuvette each time. The apparatus was zeroed using phosphate buffer with the following composition: 150 mM NaCl, 20 mM PB, 1 mM EDTA. Afterward, the samples (maintaining a constant DMSO concentration of 1%) of ctDNA (50 µM), inhibitor (100 µM), and inhibitor (100 µM) with ctDNA (50 µM) were prepared. First, a sample of the ctDNA solution was measured with a CD spectrometer to check the graph for pure DNA. Then, a sample of the inhibitor solution was measured, against which the apparatus was blanked because the inhibitor molecule itself could produce a CD effect, potentially falsifying the results. At the end, a sample of the actual solution containing the inhibitor and ctDNA was measured.

SufA protease [2] = assay: Inhibition of SufA-mediated degradation of human fibrinogen (SDS-PAGE); type: biochemical, Finegoldia magna; settings: SufA 25 µg/mL, inhibitor 1.3 mM, pre-incubation 60 min 37°C, SDS-PAGE reducing
Protocol: (§1) The SufA protease was incubated with the specific SufA inhibitor for 60 min at 37°C, maintaining a constant DMSO concentration of 1%. The reference sample contained an appropriate amount of DMSO instead of the inhibitor. After incubation, fibrinogen and LL-37 proteins were added to each sample of enzyme (25 µg/mL) or enzyme with inhibitor (25 µg/mL, 1.3 mM). Samples were analyzed by PAGE using the standard Laemmli protocol for fibrinogen and the procedure developed by Judd for the LL-37 peptide. Raw gel results of the inhibition of SufA-induced degradation of human fibrinogen and LL-37 by tested inhibitors after SDS-PAGE electrophoresis analysis are presented in Supplementary Biochemical Part S1-S2 and Figures S9–S11.

SufA protease [3] = assay: Inhibition of SufA-mediated degradation of human antimicrobial peptide LL-37 (PAGE); type: biochemical, Finegoldia magna; settings: SufA 25 µg/mL, inhibitor 1.3 mM, pre-incubation 60 min 37°C
Protocol: as §1

E. coli PCM 2561 = assay: Antibacterial activity, growth reduction (OD600, 24 h); type: cell-based; settings: Escherichia coli, PCM2561, MH broth
Protocol: (§2) The antibacterial properties of the inhibitors were assessed in Mueller-Hinton (MH) broth at 37°C for E. coli, S. marcescens, and S. aureus. For F. magna, the antibacterial properties of the inhibitors were tested in Todd Hewitt broth at 37°C under anaerobic conditions. An overnight culture of the tested bacteria was diluted 200-fold in fresh medium and incubated at 37°C until the OD600 reached 0.3. Subsequently, 100 µL of the inhibitor and antibiotic control (at concentrations ranging from 0 to 250 µg/mL) were added to 900 µL of bacterial culture, which had been previously diluted to an OD600 of less than 0.01. The resulting samples were incubated for 24 h at 37°C with shaking at 100 rpm. Then, 200 µL of each sample was transferred to a well plate, and the absorbance was measured at a wavelength of 600 nm using a microplate reader. To determine the antibacterial properties of the inhibitors, the data were normalized against a control culture (without inhibitor or antibiotics). The IC50 values were calculated using GraphPad Prism through nonlinear regression, employing the following equation model: Y=YBottom+(YTop−YBottom)/(1+10^∧((LogIC50−X)∗(−1.0))),
(§3) where YBottom and YTop represent the plateaued units of the Y-axis. The IC50 value represents the concentration that produces a half-maximal response between YBottom and YTop, thus measuring the potency of a compound in inhibiting bacterial viability and indicating a 50% reduction in bacterial growth. The effect of gentamicin on bacterial growth reduction, including its IC50 values, can be found in the Supplementary Material (Supplementary Microbiology Part S1, Figures S12)

F. magna PCM 2822 = assay: as above; type: cell-based; settings: Finegoldia magna, read-out: IC50 growth reduction
Protocol: as §2, §3

S. aureus PCM 2602 = assay: as above; type: cell-based; settings: Staphylococcus aureus, PCM2602, MH broth
Protocol: as §2, §3

S. marcescens PCM 549 = assay: as above; type: cell-based; settings: Serratia marcescens, read-out: IC50 growth reduction
Protocol: as §2, §3

SplA protease = test system: SplA protease; design: method as in PMID 24375505; settings: cited from earlier work
SufA [4] = test system: SufA; design: method as in PMID 24859537; settings: cited from earlier work
SufA [5] = test system: SufA; design: method as in PMID 24859537; settings: cited from earlier work; remark: listed apart in the source
BALB/3T3 = test system: BALB/3T3; design: method as in PMID 24859537; settings: BALB/3T3 cell line; cited from earlier work
HLMEC = test system: HLMEC; design: method as in PMID 24859537; settings: HLMEC cell line; cited from earlier work

Structure (SMILES): O=C(N[C@H](CO)[C@H](O)c1ccc([N+](=O)[O-])cc1)C(Cl)Cl [chloramphenicol]
- IC50 (E. coli): 373000 nM
- IC50 (S. aureus): 1590 nM

Structure (SMILES): CSc1ccc(OP(=O)(Oc2ccc(SC)cc2)C(NC(=O)OCc2ccccc2)c2ccc3cc(C(=N)N)ccc3c2)cc1 (stereo not drawn) [Compound 8a, Cbz-6-AmNphth^P(OC6H4-4-SCH3)2]
- k2/Ki (SufA protease [1]; second-order rate constant, 37°C, pH 8.0): 1500 M⁻¹ s⁻¹
- DNA intercalation (change of CD spectrum of ctDNA) (ctDNA): does not induce DNA intercalation
- Inhibition of SufA-induced degradation of human fibrinogen (SufA protease [2]): completely prevented fibrinogen degradation
- Inhibition of SufA-induced degradation of LL-37 (SufA protease [3]): inhibition of LL-37 cleavage
- IC50 (E. coli PCM 2561): 28200 nM
- IC50 (F. magna PCM 2822; PCM2822, Todd Hewitt broth, anaerobic, 24 h): 20 nM
- IC50 (S. aureus PCM 2602): 2650 nM
- IC50 (S. marcescens PCM 549; PCM549, 24 h): 20 nM

Structure (SMILES): CC(C)CC(NC(=O)C1CCCN1C(=O)C(NC(=O)OCc1ccccc1)C(C)C)P(=O)(Oc1ccc(S(C)(=O)=O)cc1)Oc1ccc(S(C)(=O)=O)cc1 (stereo not drawn) [Cbz-Val-Pro-Leu^P(OC6H4-4-SOOCH3)2]
- k2/Ki (SplA protease): > 8000 M⁻¹ s⁻¹

Structure (SMILES): COc1ccc(OP(=O)(Oc2ccc(OC)cc2)C(NC(=O)OCc2ccccc2)c2ccc3cc(C(=N)N)ccc3c2)cc1 (stereo not drawn) [Compound 8b, Cbz-6-AmNphth^P(OC6H4-4-OCH3)2]
- Inhibition of SufA-induced degradation of human fibrinogen (SufA protease [2]): weaker inhibitory effect on fibrinogen degradation
- IC50 (E. coli PCM 2561): > 150000 nM
- IC50 (F. magna PCM 2822; PCM2822, 24 h): 40 nM
- IC50 (S. aureus PCM 2602): 19200 nM
- IC50 (S. marcescens PCM 549; PCM549, 24 h): 480 nM

Structure (SMILES): CC(C)C(NC(=O)OCc1ccccc1)C(=O)N1CCCC1C(=O)NC(Cc1ccccc1)P(=O)(Oc1ccc(S(C)(=O)=O)cc1)Oc1ccc(S(C)(=O)=O)cc1 (stereo not drawn) [Cbz-Val-Pro-Phe^P(OC6H4-4-SOOCH3)2]
- k2/Ki (SplA protease): > 8000 M⁻¹ s⁻¹

- IC50 (S. marcescens PCM 549; PCM549, MH broth, 24 h): 251 nM
Structure (SMILES): CNC(C)C1CCC(N)C(OC2C(N)CC(N)C(OC3OCC(C)(O)C(NC)C3O)C2O)O1 (stereo not drawn) [gentamicin, reference compound]

Structure (SMILES): CC1(C)S[C@@H]2[C@H](NC(=O)[C@H](N)c3ccccc3)C(=O)N2[C@H]1C(=O)O [ampicillin]
- IC50 (E. coli): 10100 nM
- IC50 (S. aureus): 180 nM

Structure (SMILES): COC(=O)c1ccc(OP(=O)(Oc2ccc(C(=O)OC)cc2)C(NC(=O)OCc2ccccc2)c2ccc3cc(C(=N)N)ccc3c2)cc1 (stereo not drawn) [Compound 8c, Cbz-6-AmNphth^P(OC6H4-4-COOCH3)2]
- % SufA inhibition (SufA protease [1]; cmpd. conc. 50 μM): < 50%
- Inhibition of SufA-induced degradation of human fibrinogen (SufA protease [2]): weaker inhibitory effect on fibrinogen degradation
- IC50 (E. coli PCM 2561): 60900 nM
- IC50 (F. magna PCM 2822; PCM2822, 24 h): 6980 nM
- IC50 (S. aureus PCM 2602): > 150000 nM
- IC50 (S. marcescens PCM 549; PCM549, 24 h): < 10 nM

Structure (SMILES): N=C(N)c1ccc2cc(C(NC(=O)OCc3ccccc3)P(=O)(Oc3ccccc3)Oc3ccccc3)ccc2c1 (stereo not drawn) [Cbz-6-AmNpth^P(OC6H5)2]
- k2/Ki (SufA [4]): 10,800 M^− 1 s^− 1
- Inhibition of degradation of fibrinogen (SufA [5]): completely inhibited the degradation of fibrinogen
- Cytotoxicity (BALB/3T3): no significant cytotoxicity
- Cytotoxicity (HLMEC): no significant cytotoxicity
